In patent publication US10160747B2, “Compounds and methods for kinase modulation, and indications therefor” (Plexxikon Inc., priority 2016, dated 2018):

The compounds below were run against T1, BA/F3-FLT3-ITD + D835Y (Homo sapiens, UniProt P36888, D835Y, cells depend on it, form not given) (assay: Engineered BA/F3 cell growth assay, FLT3 ITD/D835Y). Details: 3 d growth.
T1 sequence (P36888 with tags, fused parts or gaps INS600HVDFREYEYD/D835Y): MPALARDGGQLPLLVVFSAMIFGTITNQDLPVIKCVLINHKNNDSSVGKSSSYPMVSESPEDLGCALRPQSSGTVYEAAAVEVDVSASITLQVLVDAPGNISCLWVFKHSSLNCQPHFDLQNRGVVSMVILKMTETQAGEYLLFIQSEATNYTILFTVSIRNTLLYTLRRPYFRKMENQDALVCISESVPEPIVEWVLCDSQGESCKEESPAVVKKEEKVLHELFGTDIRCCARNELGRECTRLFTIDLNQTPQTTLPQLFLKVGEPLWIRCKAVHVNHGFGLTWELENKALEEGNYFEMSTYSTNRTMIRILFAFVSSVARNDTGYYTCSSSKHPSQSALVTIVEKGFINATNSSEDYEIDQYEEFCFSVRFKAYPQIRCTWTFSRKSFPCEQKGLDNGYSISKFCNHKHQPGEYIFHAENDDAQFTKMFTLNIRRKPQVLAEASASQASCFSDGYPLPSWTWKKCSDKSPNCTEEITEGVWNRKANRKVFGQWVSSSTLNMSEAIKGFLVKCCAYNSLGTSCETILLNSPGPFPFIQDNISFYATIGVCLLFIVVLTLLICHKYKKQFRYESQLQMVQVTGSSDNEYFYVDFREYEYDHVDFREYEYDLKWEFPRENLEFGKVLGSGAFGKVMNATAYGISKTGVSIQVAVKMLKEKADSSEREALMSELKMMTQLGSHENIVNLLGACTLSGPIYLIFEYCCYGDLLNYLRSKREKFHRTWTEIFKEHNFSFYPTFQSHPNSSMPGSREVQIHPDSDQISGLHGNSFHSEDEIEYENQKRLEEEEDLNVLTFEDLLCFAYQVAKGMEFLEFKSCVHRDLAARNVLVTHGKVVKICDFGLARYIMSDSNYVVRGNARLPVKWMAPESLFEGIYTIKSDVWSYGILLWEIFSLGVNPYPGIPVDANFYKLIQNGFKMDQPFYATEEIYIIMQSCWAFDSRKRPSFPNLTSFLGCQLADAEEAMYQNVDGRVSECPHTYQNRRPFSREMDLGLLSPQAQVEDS
Type: cell-based, murine
Summary of the method: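 IC50 derived from CellTiter-Glo ATP luminescence after 3 days at 37 °C, 5% CO2, over eight 1:3 dilutions from 1 μM (0.2% DMSO final). Cells: IL-3-independent murine Ba/F3 expressing full-length FLT3 ITD/D835Y, 1×10^4 per well.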

GI50, 0.0001 to 10 µM:
Cn1cc(Nc2ncc(-c3ccc(CC(=O)Nc4cncc(C(C)(F)F)c4)c(F)c3)cn2)cn1 [Compound P-0090, N-[5-(1,1-difluoroethyl)-3-pyridyl]-2-[2-fluoro-4-[2-[(1-methylpyrazol-4-yl)amino]pyrimidin-5-yl]phenyl]acetamide]
O=C(Cc1ccc(-c2cnc3[nH]cc(F)c3c2)cc1F)Nc1ccnc(C(F)(F)F)c1 [Compound P-0029, 2-[2-fluoro-4-(3-fluoro-1H-pyrrolo[2,3-b]pyridin-5-yl)phenyl]-N-[2-(trifluoromethyl)-4-pyridyl]acetamide]
COc1ncc(NC(=O)Cc2ccc(-c3cnc4[nH]cc(F)c4c3)cc2F)cc1C(F)(F)F [Compound P-0034, 2-[2-fluoro-4-(3-fluoro-1H-pyrrolo[2,3-b]pyridin-5-yl)phenyl]-N-[6-methoxy-5-(trifluoromethyl)-3-pyridyl]acetamide]
CCC(=O)c1c[nH]c2ncc(-c3ccc(CC(=O)Nc4cncc(C(F)(F)F)c4)c(F)c3)cc12 [Compound P-0068, 2-[2-fluoro-4-(3-propanoyl-1H-pyrrolo[2,3-b]pyridin-5-yl)phenyl]-N-[5-(trifluoromethyl)-3-pyridyl]acetamide]
COc1ncc(NC(=O)Cc2ccc(-c3cnc(Nc4cnn(C)c4)nc3)cc2F)cc1C(F)(F)F [Compound P-0089, 2-[2-fluoro-4-[2-[(1-methylpyrazol-4-yl)amino]pyrimidin-5-yl]phenyl]-N-[6-methoxy-5-(trifluoromethyl)-3-pyridyl]acetamide]
COc1ncc(NC(=O)Cc2cc(F)c(-c3cnc4[nH]c(Cl)cc4c3)cc2F)cc1C(F)(F)F [Compound P-0045, 2-[4-(2-chloro-1H-pyrrolo[2,3-b]pyridin-5-yl)-2,5-difluoro-phenyl]-N-[6-methoxy-5-(trifluoromethyl)-3-pyridyl]acetamide]
Cc1ncc(NC(=O)Cc2ccc(-c3cnc(Nc4cn[nH]c4)nc3)cc2F)cc1C(F)(F)F [Compound P-0027, 2-[2-fluoro-4-[2-(1H-pyrazol-4-ylamino)pyrimidin-5-yl]phenyl]-N-[6-methyl-5-(trifluoromethyl)-3-pyridyl]acetamide]
Cc1ncc(NC(=O)Cc2ccc(-c3cnc4c(c3)C3(CC3)C(=O)N4)cc2F)cc1C(F)(F)F [Compound P-0057, 2-[2-fluoro-4-(2-oxospiro[1H-pyrrolo[2,3-b]pyridine-3,1′-cyclopropane]-5-yl)phenyl]-N-[6-methyl-5-(trifluoromethyl)-3-pyridyl]acetamide]
O=C(Cc1ccc(-c2cnc3c(c2)C2(CC2)C(=O)N3)cc1F)Nc1cncc(C(F)(F)F)c1 [Compound P-0064, 2-(2-fluoro-4-(2′-oxo-1′,2′-dihydrospiro[cyclopropane-1,3′-pyrrolo[2,3-b]pyridin]-5′-yl)phenyl)-N-(5-(trifluoromethyl)pyridin-3-yl)acetamide]
Cc1ncc(NC(=O)Cc2ccc(-c3cnc(Nc4cnn(C)c4C)nc3)cc2F)cc1C(F)(F)F [Compound P-0076, 2-[4-[2-[(1,5-dimethylpyrazol-4-yl)amino]pyrimidin-5-yl]-2-fluoro-phenyl]-N-[6-methyl-5-(trifluoromethyl)-3-pyridyl]acetamide]
COc1ncc(NC(=O)Cc2ccc(-c3cnc(Nc4cn[nH]c4)nc3)cc2F)cc1C(F)(F)F [Compound P-0026, 2-[2-fluoro-4-[2-(1H-pyrazol-4-ylamino)pyrimidin-5-yl]phenyl]-N-[6-methoxy-5-(trifluoromethyl)-3-pyridyl]acetamide]
COc1ncc(NC(=O)Cc2ccc(-c3cnc(Nc4cnn5ccccc45)nc3)cc2F)cc1C(F)(F)F [Compound P-0037, 2-[2-fluoro-4-[2-(pyrazolo[1,5-a]pyridin-3-ylamino)pyrimidin-5-yl]phenyl]-N-[6-methoxy-5-(trifluoromethyl)-3-pyridyl]acetamide]
